We go through one substance from patent publication US8022104B2 (priority 2005, dated 2011).

Series [1] can be described thus: Pharmacokinetic analysis in Alzheimer's disease patients. In kind it is in vivo, human. As for the experimental part: Pharmacokinetic analysis was performed on Week 4 (maintenance analysis) and on Week 9 (termination analysis). At maintenance analysis (M), samples were collected pre-dose and at 0.25, 0.5, 1, 2, and 3 hours post-dose. At termination analysis (T), samples were collected pre-dose and at 0.25, 0.5, 1, 2, 3, 4, 6, and […].
The concentration measurements are expressed in nmol/ml and the t1/2 is expressed in terms of hours.

The test system of series [2] is 3,4-dihydroxyphenylglycol (DHPG) in plasma. In words: Decrease of DHPG plasma concentration in patients, HPLC with electrochemical detector. In kind it is in vivo, human. As for the experimental part: Decrease of 3,4-dihydroxyphenylglycol (“DHPG”) in plasma is indicative of monoamine oxidase inhibition, especially in the brain. DHPG plasma concentrations were measured in 6 of the aforementioned patients at baseline and at termination analysis, using HPLC equipped with an electrochemical detector.
The decrease in DHPG concentration in the six patients was determined. The average decrease in DHPG concentration was determined to be 57% with a standard deviation of 29.

The next series relates to Cholinesterase. Briefly: Cholinesterase inhibition at pre-dose in patients. In kind it is in vivo, human. As to conditions: pre-dose administration, at maintenance and at termination analyses. An excerpt:
Cholinesterase inhibition at pre-dose administration both at maintenance and at termination analyses was also evident.

A short description of series [3]: Wet granulation experiments: compatibility with water and ethanol. It counts as physicochemical. As for the experimental part:
The manufacturing process was changed from the dry granulation process to a wet-granulation process as a result of the flow problem with the active ingredient. Water and ethanol are the two most common agents used in wet granulation. Granulation experiments were first performed with water. […] Therefore, granulation experiments based on the CC formulation were performed with isopropanol.

The nature of series [4]: Bulk and tapped density of ladostigil tartrate crystals. In kind it is physicochemical. As to conditions: crystals from the alternative isopropanol process. An excerpt:
This alternative process, which can be performed without the seeding step, is better suited for use in a pilot scale and a production scale than a method that follows PCT Application Publication No. WO98/27055.

Several values for one entry are separate records, joined by “and”; a condition that tells them apart may be missing. Equal values may be shown once. Read-outs that look alike come from different tables or passages of the source.

What is called Cmax is the maximum level reached in the sampled fluid or tissue.

Regarding “R(+)-6-(N-methyl, N-ethyl-carbamoyloxy)-N′-propargyl-1-aminoindan [Ladostigil Tartrate]”, the t1/2 in series [1] (half life at termination analysis Week 9) amounted to 1.08 h. Further, the “AUC ladostigil (M)” value in series [1] (individual patients 1-8, maintenance analysis Week 4, 100 mg twice daily, tablets of Table 9) is 314 ng·h/mL and 589 ng·h/mL and 1005 ng·h/mL and 927 ng·h/mL and 436 ng·h/mL and 551 ng·h/mL and 52 ng·h/mL and 500 ng·h/mL. Also, in series [1] (individual patients 1-8, termination analysis Week 9, 100 mg twice daily, tablets of Table 9), the “AUC ladostigil (T)” value is 246 ng·h/mL and 2305 ng·h/mL and 1449 ng·h/mL and 482 ng·h/mL and 398 ng·h/mL and 901 ng·h/mL and 118 ng·h/mL and 350 ng·h/mL. The Cmax is 700 nM and 3800 nM and 3900 nM and 1600 nM and 1000 nM and 2500 nM and 400 nM and 1300 nM in series [1] (individual patients 1-8, termination analysis Week 9, 100 mg twice daily, read-out: Cmax ladostigil (T)); 2020 nM in series [1] (mean after dosing, maintenance analysis Week 4, read-out: Cmax); 1880 nM in series [1] (mean after dosing, termination analysis Week 9, read-out: Cmax (T)). For the same substance, the “Cmin (M)” value in series [1] (mean concentration at pre-dose (12 hours after previous dose), maintenance analysis Week 4) was 1.64e-08 M. Also, the “Cmin (T)” value in series [1] (mean concentration at pre-dose (12 hours after previous dose), termination analysis Week 9) amounted to 10.9 nM. For the same substance, the “DHPG (T) (%)” value in series [2] (individual patients, termination analysis Week 9 versus baseline) is −63% and −86% and >−79% and −73% and −30% and −13%. Besides, the “average decrease in DHPG concentration” value in series [2] (six patients, termination analysis, standard deviation of 29) is on record as 57%. Further, the “Cholinesterase inhibition” value in the series on Cholinesterase is “evident”. For the same substance, in series [3] (wet granulation agent), the Compatibility with ethanol entry is recorded as “incompatible with ethanol”. For the same substance, the “Stability in the presence of water” value in series [3] (wet granulation with water) was “unstable in the presence of water”. The substance further came in with a bulk density in series [4] of 0.22 to 0.29 g/mL. The tapped density in series [4] was in the range of 0.38 to 0.54 g/mL.
